For orientation: melting point means the temperature of the solid-liquid transition.

SMILES strings stand for the structures.

We go through 51 compounds from patent US7262212B2, “2,3-dihydro-6-nitroimidazo[2,1-b]oxazoles” (Otsuka Pharmaceutical Co., Ltd., priority 2002, dated 2007).

Turning to `C[C@]1(COC(=O)N2CCCc3cc(Cl)ccc32)Cn2cc([N+](=O)[O-])nc2O1`, the melting point lay in the range of 172 to 174 °C.
With `CC1(COc2ccc(OC(F)(F)F)cc2)Cn2cc([N+](=O)[O-])nc2O1` (stereo not drawn), the melting point was in the range of 126.8 to 127.9 °C.
The same measure for `C[C@]1(COc2ccc(-n3ccnc3)cc2)Cn2cc([N+](=O)[O-])nc2O1`: 172 to 175 °C; for `CC(C)(C)OC(=O)N1CCC(c2ccc(OC[C@@]3(C)Cn4cc([N+](=O)[O-])nc4O3)cc2)CC1`: 227.5 to 228.3 °C (dec.).
Under `C[C@]1(CN2CCC(N3CCN(c4ccc(Cl)cc4)CC3)CC2)Cn2cc([N+](=O)[O-])nc2O1` stands 226 to 228 °C.
Turning to `C[C@]1(CN2CCN(C3CCN(Cc4ccc(OC(F)(F)F)cc4)CC3)CC2)Cn2cc([N+](=O)[O-])nc2O1`, the melting point is 140 to 141 °C.
`CC1(COc2ccc(N3CCC(Oc4ccc(Cl)cc4)CC3)cc2)Cn2cc([N+](=O)[O-])nc2O1` (stereo not drawn) gave a melting point of 151 to 152.3 °C.
The compound `C[C@]1(COc2ccc(C(=O)N3CCN(C(=O)OCc4ccc(OC(F)(F)F)cc4)CC3)cc2)Cn2cc([N+](=O)[O-])nc2O1` showed a melting point of 168.5 to 172 °C.
Under `CN(Cc1ccc(Cl)cc1)C[C@@]1(C)Cn2cc([N+](=O)[O-])nc2O1` stands 129 to 129.5 °C; under `CNC(C1CCN(c2ccc(OC(F)(F)F)cc2)CC1)[C@]1(C)Cn2cc([N+](=O)[O-])nc2O1` (stereo partly drawn), 127.2 to 129.7 °C.
Take `CNC(C1CCN(c2ccc(C(F)(F)F)cc2)CC1)[C@]1(C)Cn2cc([N+](=O)[O-])nc2O1` (stereo partly drawn): the melting point was 131.5 to 133.6 °C.
Compound `CNC(C1CCN(C(=O)OCc2ccc(Cl)cc2)CC1)[C@]1(C)Cn2cc([N+](=O)[O-])nc2O1` (stereo partly drawn) showed a melting point of 116.2 to 116.6 °C.
`CC1(CN2CCC(Oc3ccc(C(F)(F)F)cc3)CC2)Cn2cc([N+](=O)[O-])nc2O1` (stereo not drawn): the melting point fell in the range of 113 to 114 °C.
In the case of `CN(C(=O)OC(C)(C)C)C1CCN(CC2(C)Cn3cc([N+](=O)[O-])nc3O2)CC1` (stereo not drawn), the melting point lay within 198.8 to 201.1 °C.
For `C[C@]1(CN2CCC(OCC=Cc3ccccc3)CC2)Cn2cc([N+](=O)[O-])nc2O1`, the melting point is 91.3 to 92.7 °C.
In the case of `C[C@]1(CN2CCC(NC(=O)Nc3ccc(C(F)(F)F)cc3)CC2)Cn2cc([N+](=O)[O-])nc2O1`, the melting point is 136.8 to 139.9 °C.
On to `CC1(CN2CCN(c3ccc(-c4ccccc4)cc3)CC2)Cn2cc([N+](=O)[O-])nc2O1` (stereo not drawn), for which the melting point fell in the range of 223 to 227.8 °C.
In turn, `CC1(CN2CCN(c3ccc(Cl)cc3)CC2)Cn2cc([N+](=O)[O-])nc2O1` (stereo not drawn) came in with a melting point of 196.6 to 197.3 °C.
With `O=[N+]([O-])c1cn2c(n1)OC(CN1CCN(Cc3ccc(-c4ccccc4)cc3)CC1)C2` (stereo not drawn), the melting point is 183 to 185 °C (dec.).
`CC1(CCCN2CCN(Cc3ccc(C(F)(F)F)cc3)CC2)Cn2cc([N+](=O)[O-])nc2O1` (stereo not drawn) yielded a melting point of 154 to 156 °C.
Under `CC1(CCN2CCN(Cc3ccc(-c4ccccc4)cc3)CC2)Cn2cc([N+](=O)[O-])nc2O1` (stereo not drawn) stands 181 to 182 °C.
Take `CC1(CN2CCN(C(=O)Oc3ccccc3)CC2)Cn2cc([N+](=O)[O-])nc2O1` (stereo not drawn): the melting point was in the range of 81 to 85 °C.
Take `CC1(CN2CCN(C(=O)NC3CCCCC3)CC2)Cn2cc([N+](=O)[O-])nc2O1` (stereo not drawn): the melting point was in the range of 216.5 to 218.5 °C.
For `CC1(CN2CCN(C(=S)Nc3ccccc3)CC2)Cn2cc([N+](=O)[O-])nc2O1` (stereo not drawn), the melting point was 164 to 165 °C (dec.).
With `CC1(CCCN2CCN(c3nc4ccccc4o3)CC2)Cn2cc([N+](=O)[O-])nc2O1` (stereo not drawn), the melting point lay within 172 to 174.4 °C.
Under `O=[N+]([O-])c1cn2c(n1)O[C@@H](CN1CCN(c3ccc(F)cc3)CC1)C2` stands 178.5 to 179.5 °C.
In turn, `C[C@]1(CN2CCN(C(=O)OCC=Cc3ccc(C(F)(F)F)cc3)CC2)Cn2cc([N+](=O)[O-])nc2O1` returned a melting point of 132 to 133 °C.
Under `O=[N+]([O-])c1cn2c(n1)O[C@H](CN1CCN(Cc3ccc(C(F)(F)F)cc3)CC1)C2` stands 141 to 143 °C.
In the case of `CC1(CN2CCN(C(=O)CCc3ccccc3)CC2)Cn2cc([N+](=O)[O-])nc2O1` (stereo not drawn), the melting point fell in the range of 166.8 to 169.1 °C.
Regarding `Cc1ccc(CC(=O)N2CCN(CC3(C)Cn4cc([N+](=O)[O-])nc4O3)CC2)cc1` (stereo not drawn), the melting point is 213 to 214 °C.
The same measure for `CN(C)c1ccc(C(=O)N2CCN(CC3(C)Cn4cc([N+](=O)[O-])nc4O3)CC2)cc1` (stereo not drawn): 204 to 207 °C; for `C[C@@]1(CN2CCN(C(=O)OCc3ccc(F)cc3)CC2)Cn2cc([N+](=O)[O-])nc2O1`: 167 to 169 °C; for `CC1(CN2CCN(C(=O)Nc3ccc(Cl)c(Cl)c3)CC2)Cn2cc([N+](=O)[O-])nc2O1` (stereo not drawn): 212 to 214 °C (dec.).
Compound `C[C@]1(CN2CCN(C(=O)Nc3ccc(C(F)(F)F)cc3)CC2)Cn2cc([N+](=O)[O-])nc2O1` registered a melting point of 150 to 152.5 °C.
Under `COc1ccc(NC(=O)N2CCN(C[C@@]3(C)Cn4cc([N+](=O)[O-])nc4O3)CC2)cc1` stands 185.5 to 187.5 °C; under `C[C@]1(CN2CCN(C(=O)NCc3ccc(C(F)(F)F)cc3)CC2)Cn2cc([N+](=O)[O-])nc2O1`, 101 to 103.6 °C.
The same measure for `CC1(CCSc2nc3ccccc3o2)Cn2cc([N+](=O)[O-])nc2O1` (stereo not drawn): 174 to 175 °C; for `C[C@]1(CN2CCN(N=Cc3cc4cc(Cl)ccc4o3)CC2)Cn2cc([N+](=O)[O-])nc2O1`: 213.8 to 215.7 °C; for `CC1(Cn2nc(COc3ccc(Cl)cc3)oc2=O)Cn2cc([N+](=O)[O-])nc2O1` (stereo not drawn): 64 to 66 °C.
`Cn1c(=O)n(CC2(C)Cn3cc([N+](=O)[O-])nc3O2)c2cc(Cl)ccc21` (stereo not drawn): the melting point was 261.9 to 265.4 °C (dec.).
The same measure for `CC1(CN2CCN(Cc3ccccc3)C2=O)Cn2cc([N+](=O)[O-])nc2O1` (stereo not drawn): 180.2 to 180.9 °C.
The same measure for `CC1(CN2CCN(Cc3ccc(F)cc3)C2=O)Cn2cc([N+](=O)[O-])nc2O1` (stereo not drawn): 182.5 to 183.3 °C.
`CC1(CN2CCC(=O)CC2)Cn2cc([N+](=O)[O-])nc2O1` (stereo not drawn) registered a melting point of 124 to 126 °C.
Regarding `CC1(Cn2ccnc2)Cn2cc([N+](=O)[O-])nc2O1` (stereo not drawn), the melting point was in the range of 245.5 to 247.8 °C.
`CC(C)(C)OC(=O)N1CCC2(CC1)Cn1cc([N+](=O)[O-])nc1O2`: the melting point fell in the range of 230 to 232 °C.
In the case of `O=[N+]([O-])c1cn2c(n1)OC1(CCN(c3ccc(C(F)(F)F)cc3)CC1)C2`, the melting point lay within 249.2 to 250.1 °C.
The same measure for `CN(Cc1ccc(OC(F)(F)F)cc1)C(=O)OC[C@@]1(C)Cn2cc([N+](=O)[O-])nc2O1`: 123 to 124 °C; for `C[C@]1(COC(=O)N(c2ccc(Cl)cc2)C2CCCCC2)Cn2cc([N+](=O)[O-])nc2O1`: 175 to 177 °C; for `CN(C(=O)OC[C@@]1(C)Cn2cc([N+](=O)[O-])nc2O1)c1ccc(OC(F)(F)F)cc1`: 144 to 145 °C.
The same measure for `CC1(COC(=O)N2CCCCC2)Cn2cc([N+](=O)[O-])nc2O1` (stereo not drawn): 152 to 154 °C; for `CC1(COC(=O)N2CCN(c3ccc(OC(F)(F)F)cc3)CC2)Cn2cc([N+](=O)[O-])nc2O1` (stereo not drawn): 138 to 140 °C.
